Experiment [1] concerns Porcine Salmonella typhimurium. The experiment is described as follows: In vitro antibacterial action, appearance of growth in Brain Heart Infusion, pH 6 (Tables 3 and 4). In kind it is cell-based. The conditions noted are these: for Incubation time and appearance of growth: pH 6, inoculation 10^5, Brain Heart Infusion, 3 replications; for Concentration exhibiting inhibitory potency (no growth) in all three replicates: porcine Salmonella typhimurium, tested 5000-40000 ppm.

Another experiment deals with Aspergillus spp. The experiment can be described thus: In vitro sensitivity test towards filamentous fungi (Example 5), Aspergillus. The experiment is classed as cell-based. The following applies: 5 ml fungal suspension + 5 ml product, 24 hours at 20±4° C.; read after 5 days; control 450000. As to the method:
(§1) In Vitro Sensitivity Tests towards Filamentous Fungi (Moulds)
(§2) Strains of Aspergillus spp, Penicillium spp and Fusarium spp were utilized for the test, having been isolated and identified during diagnostic activity at the IZSLER section of Forli from complete feeds used in the chicken industry. To prepare the inoculum, mycelium of pure cultures of the tested strains was collected using a swab. The material thus collected was dissolved in a culture broth (BHI—Brain Heart Infusion). 5 ml of the fungal suspension and an equal amount of the product to be tested were placed in contact in a test tube. The test tube was incubated at 20±4° C. for 24 hours.
(§3) After this time period, the fungal suspension was then seeded and enumerated.
(§4) The control suspension was obtained by placing 5 ml of fungal suspension+5 ml of diluent (Ringer's lactate) into a test tube. Reading of the tests was carried out after a 5 day incubation period at 20±4° C.

The next experiment relates to Penicillium spp. The experiment can be described thus: In vitro sensitivity test towards filamentous fungi (Example 5), Penicillium. The experiment is classed as cell-based. The following applies: 5 ml fungal suspension + 5 ml product, 24 hours at 20±4° C.; read after 5 days; control 97000. The protocol:
as §1, §2, §3, §4

The next experiment has as its system Fusarium spp. The experiment is described as follows: In vitro sensitivity test towards filamentous fungi (Example 5), Fusarium. The following applies: 5 ml fungal suspension + 5 ml product, 24 hours at 20±4° C.; read after 5 days; control 310000. The experiment is classed as cell-based. As to the method:
as §1, §2, §3, §4

For experiment [2], the system named is E. coli. The experiment is described as follows: Antibacterial potency (Table 1), E. coli count. The experiment is classed as cell-based.
Experiment [3] concerns Clostridium perfringens CP27. The experiment is classed as cell-based. The following applies: for Incubation time and appearance of growth: inoculation 10^5, Brain Heart Infusion, 3 replications; for Concentration exhibiting inhibitory potency (no growth) in all three replicates: Clostridium perfringens, tested 500-4000 ppm.
The test system of a further experiment is Campylobacter jejuni. The experiment is described as follows: Antibacterial potency (Table 1), Campylobacter jejuni count.
Another experiment has as its system Salmonella typhimurium. The experiment is described as follows: Antibacterial potency (Table 1), Salmonella typhimurium count.
The test system of experiment [4] is E. coli. The experiment can be described thus: In vitro antibacterial action, appearance of growth in Brain Heart Infusion, pH 5 (Table 5). The following applies: for Incubation time and appearance of growth: pH 5, inoculation 10^5, Brain Heart Infusion, 3 replications.
Where [5] appears, read: pH 4.5, conc. used: Propionic acid 1:909, Butyric Acid 1:1000, Monobutyrin 43 1:100.
The mark [6] stands for this setting: pH 7, conc. used: Propionic acid 1:909, Butyric Acid 1:1000, Monopropionin 43 1:109, Monobutyrin 43 1:100.

Read-outs that look alike come from different tables or passages of the source. Bounds are passed on as bounds.

Take `CC(=O)O` [Acetic acid]: the “Incubation time and appearance of growth” value in [1] (5000 ppm, Table 3) was “+ (+ for 24 hr)”; in experiment [1] (10000 ppm, Table 3), “+ (+ for 24 hr)”; in experiment [1] (15000 ppm, Table 3), “+ (+ for 24 hr)”; in experiment [1] (20000 ppm, Table 3), “no growth”; in experiment [1] (25000 ppm, Table 3), “no growth”; in experiment [1] (30000 ppm, Table 3) it was “no growth”. Further, in [1] (40000 ppm, Table 3), the “Incubation time and appearance of growth” value was “no growth”. For the same compound, the “Concentration exhibiting inhibitory potency (no growth) in all three replicates” value in experiment [1] (acetic acid series) was ≥ 20,000 ppm.
`CCC(=O)O.N` [Ammonium propionate]: the ASPERGILLUS spp. count in the experiment with Aspergillus spp was found to be 1000 cfu/ml. Besides, the PENICILLIUM spp. count in the experiment on Penicillium spp is on record as 100 cfu/ml. The FUSARIUM spp. count in the experiment on Fusarium spp amounted to 500 cfu/ml.
As to `CCCC(=O)O` [Butyric Acid], the “E. coli (cfu/ml)” value with E. coli [2] (setting [5]) is 78 × 10^4 cfu/ml; in the experiment on E. coli [2] (setting [6]), 106 × 10^4 cfu/ml. Besides, the “Incubation time and appearance of growth” value in experiment [3] (500 ppm) is on record as “+ (+ for 24 hr)”; in experiment [3] (1000 ppm), “+ (+ for 24 hr)”; in experiment [3] (1500 ppm) it was “+ (+ for 24 hr)”; in [3] (2000 ppm) it was “++ (++ for 37 hr)”; in experiment [3] (2500 ppm) it was “++ (++ for 37 hr)”; in experiment [3] (3000 ppm), “no growth”. In experiment [3] (4000 ppm), the “Incubation time and appearance of growth” value is “no growth”. In addition, the “Concentration exhibiting inhibitory potency (no growth) in all three replicates” value in experiment [3] is reported as not below 3000 ppm. Besides, the “Campylobacter jejuni (cfu/ml)” value is 2 × 10^1 cfu/ml with Campylobacter jejuni (setting [5]) and 18 × 10^3 cfu/ml in the experiment with Campylobacter jejuni (setting [6]). Also, the “Salmonella typhimurium (cfu/ml)” value is 25 × 10^3 cfu/ml in the experiment with Salmonella typhimurium (setting [5]) and 65 × 10^4 cfu/ml with Salmonella typhimurium (setting [6]).
For `O=C(O)/C=C/C(=O)O` [Fumaric acid], the “Incubation time and appearance of growth” value is recorded as “+ (+ for 24 hr)” in the experiment on E. coli [4] (10000 ppm); “+ (+ for 24 hr)” in the experiment on E. coli [4] (20000 ppm); “+ (+ for 24 hr)” with E. coli [4] (40000 ppm); “++ (++ for 37 hr)” in the experiment with E. coli [4] (60000 ppm); “++ (++ for 37 hr)” in the experiment with E. coli [4] (80000 ppm); “no growth” in the experiment with E. coli [4] (90000 ppm). The “Incubation time and appearance of growth” value with E. coli [4] (100000 ppm) was “no growth”. The “Concentration exhibiting inhibitory potency (no growth) in all three replicates” value in the experiment with E. coli [4] (E. coli, tested 10000-100000 ppm) is ≥ 90,000 ppm.
In the case of `CCC(=O)O` [Propionic acid], the “E. coli (cfu/ml)” value in the experiment on E. coli [2] (setting [5]) was 13 × 10^4 cfu/ml; in the experiment on E. coli [2] (setting [6]) it was 54 × 10^4 cfu/ml. Also, the ASPERGILLUS spp. count in the experiment on Aspergillus spp is listed as 300 cfu/ml. Also, the PENICILLIUM spp. count with Penicillium spp was less than 100 cfu/ml. Moreover, the FUSARIUM spp. count with Fusarium spp was found to be 300 cfu/ml. For the same compound, the “Campylobacter jejuni (cfu/ml)” value in the experiment with Campylobacter jejuni (setting [5]) was 14 × 10^1 cfu/ml; in the experiment on Campylobacter jejuni (setting [6]), 33 × 10^3 cfu/ml. The “Salmonella typhimurium (cfu/ml)” value in the experiment on Salmonella typhimurium (setting [5]) was 42 × 10^3 cfu/ml; in the experiment with Salmonella typhimurium (setting [6]) it was 11 × 10^4 cfu/ml.
For Butyric acid monoglycerides, the “Incubation time and appearance of growth” value in experiment [3] (500 ppm), in [3] (1000 ppm), in experiment [3] (1500 ppm), in experiment [3] (2000 ppm), in experiment [3] (2500 ppm) and in experiment [3] (3000 ppm) was “+ (+ for 24 hr)” throughout. Further, in [3] (4000 ppm), the “Incubation time and appearance of growth” value is on record as “+ (+ for 24 hr)”. Besides, the “Concentration exhibiting inhibitory potency (no growth) in all three replicates” value in experiment [3] was “do not exhibit any inhibitory potency”.
Formic acid monoglycerides: the “Incubation time and appearance of growth” value in experiment [1] (5000 ppm, Table 4) is given as “+ (+ for 24 hr)”; in experiment [1] (10000 ppm, Table 4) it was “+ (+ for 24 hr)”; in [1] (15000 ppm, Table 4) it was “+ (+ for 24 hr)”; in [1] (20000 ppm, Table 4) it was “+ (+ for 24 hr)”; in experiment [1] (25000 ppm, Table 4) it was “no growth”; in experiment [1] (30000 ppm, Table 4) it was “no growth”. In addition, the “Incubation time and appearance of growth” value in [1] (40000 ppm, Table 4) was “no growth”. In addition, the “Concentration exhibiting inhibitory potency (no growth) in all three replicates” value in experiment [1] (formic acid series) was ≥ 25,000 ppm.

For the origin of these results see patent publication US20120029075A1, “COMPOSITIONS CONTAINING C1 TO C7 ORGANIC ACID MONOGLYCERIDES AND GLYCEROL, THEIR PREPARATION AND USE AS ANTIBACTERIALS AND ANTI-MOULD AGENTS” (priority 2009, published 2012).
